The source of these data is PMC12227560, “Total synthesis of a sorrentanone ester library and evaluation of its antimicrobial potential” (Scientific Reports, 2025).

In data set [1] the test system is C. albicans ATCC 10231 hyphae formation. Nature of the data set: Filamentation test on Candida (solid spider medium). The data set is classed as cell-based, Candida albicans. As to conditions: for relative activity in inhibition of filament formation (in words): compared with 36 and 41, sub-inhibitory concentrations. On the procedure: Filamentation test on Candida: Using solid composition, the effect of sorrentano ne […]
albicans cells from an overnight culture grown in Sabouraud dextrose broth medium at 37 °C with or without compounds were centrifuged for 10 minutes at maximum speed, and the pellet was washed several times with sterile PBS (phosphate -buffered saline). After it, the pellet was resuspended in 200 µL PBS, and 2 µL of cell suspension was poured over solid composition and incubated at 37 °C for 120 h. Morphological changes of C. albicans ATCC

Data set [2] has as its system human lung fibroblast cell line (MRC-5). Briefly: Cytotoxicity evaluation by MTT assay. The data set is classed as cell-based. The text has this:
(§1) 3. Bioactivity and Toxicity Assays
(§2) Antimicrobial assay: According to the standard broth micro-dilution assays, following the Standards of European Committee on Antimicrobial Susceptibility Testing (v 7.3.1: Method for the determination of broth dilution minimum inhibitory concentrations of antifungal agents for yeasts) for Candida spp., and according to the standard broth micro-dilution assays, recommended by the National Committee for Clinical Laboratory Standards (M07-A8) for bacteria MIC values of compounds were determinate. Compounds were dissolved in DMSO at a concentration of 50 mg/mL, and the highest tested concentration was 250 µg/mL. The inoculums were 1x10^5 colony forming units (CFU/mL), for Candida species, and bacteria species, 5x10^5 colony forming units (CFU/mL). The MIC value was recorded as the lowest concentration that inhibited the growth after 24 h at 37 °C. Additionally, 5 µL from each well of 96 well plates was transferred to Luria Agar (LA) plates for bacteria and Sabouraud agar (SAB) plates for Candida spp. and incubated for an additional 24 h at 37 °C, to determine MBC (Minimum bactericidal/fungicidal concentration) values. In Table 1. Are labeled compounds showing a difference in MBC and previously determined MIC values.
Cytotoxicity evaluation: Antiproliferative activity was tested by MTT assay (3-(4,5-dimethylthiazol-2-yl)-2,5-diphenyltetrazoliumbromide) on a human lung fibroblast cell line (MRC-5; ATCC collection). Pre-grown (24 h) cell monolayers (1x10^4 cells per well) in RPMI 1640 medium supplemented with 100 μg/mL streptomycin, 100 U/mL penicillin, and 10% (v/v) FBS (all from Sigma, Munich, Germany) containing the tested compounds at concentrations ranging from 5 to 20 μg/mL were incubated in a humidified atmosphere of 95% air and 5% CO2 at 37 °C for 48 h. The cell viability (extent of MTT reduction) was measured spectrophotometrically at 540 nm using the Epoch 2000 multiplate reader, and the cell survival was expressed as a percentage of the control (untreated cells). Cytotoxicity was expressed as the concentration of the compound inhibiting cell growth by 50% (IC 50). […]

The subject of a further data set is C. albicans ATCC10231. Briefly: Antimicrobial broth micro-dilution assay (MIC). The class given is cell-based. Conditions: Candida albicans; C. albicans ATCC10231; 24 h at 37 °C; highest tested concentration 250 µg/mL; read-out: Minimum inhibitory concentration (MIC).
Description: as §1
as §2, with “MIC values. […]” for “MIC values.”
(In general: Dilution methods test growth across graded concentrations, often in twofold steps.)

The next data set concerns S. aureus MRSA. Nature of the data set: Antimicrobial broth micro-dilution assay (MIC). The class given is cell-based. As to conditions: Staphylococcus aureus; S. aureus MRSA; 24 h at 37 °C; highest tested concentration 250 µg/mL; read-out: Minimum inhibitory concentration (MIC).
Description: as §1
as §2, with “MIC values. […]” for “MIC values.”

Another data set has as its system B. subtilis ATCC6633. Nature of the data set: Antimicrobial broth micro-dilution assay (MIC). The data set is classed as cell-based. As to conditions: Bacillus subtilis; B. subtilis ATCC6633; 24 h at 37 °C; highest tested concentration 250 µg/mL; read-out: Minimum inhibitory concentration (MIC).
Description: as §1
as §2, with “MIC values. […]” for “MIC values.”

The next data set concerns E. coli NCTC9001. Nature of the data set: Antimicrobial broth micro-dilution assay (MIC). The class given is cell-based. Conditions: Escherichia coli; E. coli NCTC9001; 24 h at 37 °C; highest tested concentration 250 µg/mL; read-out: Minimum inhibitory concentration (MIC).
Description: as §1
as §2, with “MIC values. […]” for “MIC values.”

For the next data set, the system named is P. aeruginosa ATCC27853. Briefly: Antimicrobial broth micro-dilution assay (MIC). The class given is cell-based. Conditions: Pseudomonas aeruginosa; P. aeruginosa ATCC27853; 24 h at 37 °C; highest tested concentration 250 µg/mL; read-out: Minimum inhibitory concentration (MIC).
Description: as §1
as §2, with “MIC values. […]” for “MIC values.”

The subject of another data set is S. aureus ATCC25923. Nature of the data set: Antimicrobial broth micro-dilution assay (MIC). The class given is cell-based. Conditions: Staphylococcus aureus; S. aureus ATCC25923; 24 h at 37 °C; highest tested concentration 250 µg/mL; read-out: Minimum inhibitory concentration (MIC).
Description: as §1
as §2, with “MIC values. […]” for “MIC values.”

Another data set relates to Bacillus subtilis. Details: method as in PMID 37687129, PMID 7622440. Conditions: cited from earlier work.
The test system of data set [3] is C. albicans ATCC10231 biofilm formation. Briefly: Anti-biofilm activity assessment (crystal violet). The class given is cell-based, Candida albicans. As to conditions: for inhibition of biofilm formation (in words): data not shown. On the procedure: Anti-biofilm activity assessment: The effect of compounds on biofilms formation was determined on C. albicans ATCC 10231 strain. Anti -biofilm assays were conducted using a previously reported methodology with small modifica tions.9 The assay was carried out in 96 - well round-bottom polystyrene microtiter plates. Cells wer e harvested from overnight grown cultures, washed twice with sterile phosphate -buffered saline (PBS; Sigma -Aldrich, Munich, Germany), and resuspended in RPMI 1640 medium (Sigma -Aldrich) containing 2% glucose (w/v) at a concentration of 1 × 10^5 CFU/mL. C. albicans suspension was incubated with 0.5 MIC, 1 MIC, and 2 MIC compounds concentration in 200.0 μL final volume per well for 48 h at 37 °C to allow biofilm formation. Biofilm growth was analyzed by crystal violet (CV) staining of adherent cells and the a bsorbance at 590.0 nm was read on a Tecan Infinite 200 Pro multiplate reader (Tecan Group Ltd., Männedorf, Switzerland). […]

Data set [4] deals with various Streptococcus and Staphylococcus species. Details: method as in PMID 37687129, PMID 7622440. As to conditions: cited from earlier work.
Data set [5] concerns ergosterol in C. albicans. Briefly: Ergosterol biosynthesis assay. The class given is cell-based, Candida albicans. Conditions: 0.5 MIC; Candida cells; UV profile. How it is done:
Ergosterol biosynthesis assay: Ergosterol levels were measured according to the published procedure with some minor modifications. 10 Briefly, a sing le C. albicans colony from an overnight Sabouraud dextrose agar plate was used to inoculate 50 ml of Sabouraud dextrose broth containing 0.5 MIC concentrated compounds. Incubation was performed for 18 h at 37 °C on the rotary shaker at 180 rpm. Cells were harvested by centrifugation at 3000 rpm for 5 min and washed once with sterile distilled water. The net wet weight of the cell pellet was determined. Three milliliters of 25% alcoholic potassium hydroxide solution (25 g of KOH and 35 ml of sterile distill ed water, brought to 100 ml with 100% ethanol), was added to each pellet and vortex mixed for 1 min and incubated in an 85 °C water bath for 1 h. Tubes were cooled to room temperature and extraction of sterols was done with the addition of a mixture of 1 ml of sterile distilled water and 3 ml of n-heptane followed by vigorous vortex mixing for 3 min. The heptane layer was used for spectrophotometrically measuring ergosterol concentrations by scanning absorbance between 240 nm and 300 nm using Ultrospec 3300pro 573 (Amer sham Biosciences, Amersham, UK).

The next data set deals with Enterococcus faecalis. Details: method as in PMID 37687129, PMID 7622440. As to conditions: cited from earlier work.
For data set [6], the system named is two S. aureus strains and B. subtilis ATCC6633. Nature of the data set: Antimicrobial assay, Gram-positive bacteria. The data set is classed as cell-based. As to conditions: from MIC values.
Description: as §1
as §2, with “MIC values. […]” for “MIC values.”

In brackets after ≈: the same amount, converted by molar mass.

What is called IC50 is the concentration at which inhibition is half-maximal. For `C/C=C/C=C/C(=O)C1=C(C)C(=O)C(O)=C(C)C1=O` [compound 7, sorrentanone], the “filamentation (in words)” value in [1] (0.5 times MIC, 120 h, C. albicans ATCC10231) is recorded as “already show filamentation after 120 h”. Moreover, in data set [1], the “relative activity in inhibition of filament formation (in words)” value is “less active”. Besides, the “in vitro toxicity ranking (in words)” value in data set [2] (MRC-5 cells) is recorded as “highest toxicity”. In addition, the “selectivity index (SI)” value in data set [2] (cytotoxicity versus antibiotic activity, calculation not described) was 1.12. Besides, the MIC is 125 µg/mL (≈ 508 µM) with C. albicans ATCC10231; 31.2 µg/mL (≈ 127 µM) with S. aureus MRSA; 62.5 µg/mL (≈ 254 µM) in the data set on B. subtilis ATCC6633; > 250 µg/mL with E. coli NCTC9001; > 250 µg/mL with P. aeruginosa ATCC27853; 62.5 µg/mL (≈ 254 µM) in the data set on S. aureus ATCC25923. Besides, the IC50 in the data set with Bacillus subtilis was 32.0 µg/mL (≈ 130 µM); in data set [4], 16.0 to 64.0 µg/mL; in the data set on Enterococcus faecalis it was 128 µg/mL (≈ 520 µM). For the same molecule, the “inhibition of biofilm formation (in words)” value in [3] is given as “displayed inhibition of biofilm formation”. Further, the “inhibition of biofilm formation” value in data set [3] (sub-inhibitory concentration (0.5 times MIC), 48 h) is on record as 60–77%. For the same molecule, the “reduction of total amount of ergosterol (in words)” value in data set [5] is given as “most potent in reducing the total amount of ergosterol”.
With `C=CCCCOC(=O)C1=C(C)C(=O)C(O)=C(C)C1=O` [compound 39], the “relative activity in inhibition of filament formation (in words)” value in [1] was “less active”. Further, the MIC with C. albicans ATCC10231 was 62.5 µg/mL (≈ 236 µM); with S. aureus MRSA, 62.5 µg/mL (≈ 236 µM); in the data set with B. subtilis ATCC6633, 15.6 µg/mL (≈ 59 µM); in the data set on E. coli NCTC9001, > 250 µg/mL; with P. aeruginosa ATCC27853, > 250 µg/mL; in the data set with S. aureus ATCC25923 it was 62.5 µg/mL (≈ 236 µM). In data set [6], the “improvement of antibacterial activity compared to sorrentanone (7)” value is given as “two- to four-fold improved activity”. In data set [3], the “inhibition of biofilm formation (in words)” value was “displayed inhibition of biofilm formation”. The “reduction of total amount of ergosterol (in words)” value in data set [5] was “most potent in reducing the total amount of ergosterol”.
